Laboratory results taken from US20130165508A1, “METHODS AND FORMULATIONS FOR TREATING INEFFECTIVE OR DECREASED ESOPHAGAL MOTILITY” (priority 2007, published 2013).

Legend:
[1] = systemic dosing; cited from earlier work
muscarinic M2 receptors = target: T1, muscarinic M2 receptors (Homo sapiens, UniProt P08172); settings: cited from earlier work
T1 sequence (P08172 1-466): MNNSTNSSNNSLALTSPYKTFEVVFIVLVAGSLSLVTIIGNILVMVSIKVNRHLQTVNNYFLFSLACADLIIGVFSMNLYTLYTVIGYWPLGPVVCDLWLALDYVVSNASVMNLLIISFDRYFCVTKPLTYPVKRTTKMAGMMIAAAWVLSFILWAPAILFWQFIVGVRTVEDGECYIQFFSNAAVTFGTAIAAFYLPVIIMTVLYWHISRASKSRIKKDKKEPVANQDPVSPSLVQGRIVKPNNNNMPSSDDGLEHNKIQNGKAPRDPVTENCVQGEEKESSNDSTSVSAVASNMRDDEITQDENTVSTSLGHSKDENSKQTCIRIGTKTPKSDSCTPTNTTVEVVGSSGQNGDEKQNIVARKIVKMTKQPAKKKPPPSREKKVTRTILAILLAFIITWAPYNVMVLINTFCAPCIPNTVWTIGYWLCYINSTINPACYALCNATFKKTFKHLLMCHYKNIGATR

[2] = cited from earlier work
[3] = Expected absorption of bethanechol from ten 0.1 ml sprays with absorption enhancer; format: in vivo
Source text: An exemplary method comprises treating ineffective esophageal motility while reducing or virtually eliminating an undesirable side effect, particularly a parasympathetic nervous system side effect, in a mammal in need of treatment by topically administering to the pharynx and esophagus of the mammal a therapeutically effective amount of bethanechol and an absorption enhancer to facilitate esophageal peristalsis so that the undesirable side effect, particularly the parasympathetic nervous system side effect, is reduced while maintaining the therapeutic esophageal peristaltic effect. A further exemplary method comprises delivering an amount of bethanechol of between about 3 mg and about 15 mg. A further exemplary method comprises introducing about ten 0.1 ml sprays comprising 5 mg bethanechol per ml and an absorption enhancer. Of the total 5 mg introduced, it is expected about 25 percent of the bethanechol, or about 1.25 mg, is adsorbed. The remaining 3.75 mg would proceed into the stomach and intestines, and, at about a 22 percent absorption rate would result in only about 0.8 mg bethanechol being systemically adsorbed, far below the threshold necessary to produce undesirable side effects.

[4] = Gastrointestinal absorption of oral bethanechol; format: in vivo; settings: 50 mg oral dosage at about 22 percent absorption
Procedure: Thus, to achieve the beneficial effects of bethanechol on esophageal motility, systemic dosages in the range of 25-50 mg are required. Further, absorption of bethanechol at these dosage levels by the stomach and lower GI tract results in systemic distribution to other areas of the body such as the urinary tract and colon. A 50 mg oral dosage, for example, is believed to be about 22 percent absorbed in the stomach and intestines, which are rich in blood supply. This would result in a systemic level of about 11 mg of bethanechol. As described herein, however, bethanechol delivered locally to the pharynx and esophagus in a form that can more easily be absorbed by the mucosal lining of the pharynx and esophagus and delivered to the muscarinic receptors, principally the M2 receptors, can provide esophageal motility benefits, as well as increased salivation, while minimizing or avoiding systemic absorption and reducing or eliminating undesirable side effects. Enhancing the reduction or elimination of undesirable side effects is the fact that the esophagus has low vascularization, thus inhibiting the systemic absorption of bethanechol.

acetylcholinesterase = acetylcholinesterase (Homo sapiens, UniProt P22303); settings: cited from earlier work
[5] = system: patients with severe ineffective esophageal motility; settings: 50 mg oral doses, after 15 and 40 minutes; cited from earlier work
[6] = cited from earlier work; remark: listed apart in the source

acetylcholinesterase, sequence (P22303 32-614, species assumed): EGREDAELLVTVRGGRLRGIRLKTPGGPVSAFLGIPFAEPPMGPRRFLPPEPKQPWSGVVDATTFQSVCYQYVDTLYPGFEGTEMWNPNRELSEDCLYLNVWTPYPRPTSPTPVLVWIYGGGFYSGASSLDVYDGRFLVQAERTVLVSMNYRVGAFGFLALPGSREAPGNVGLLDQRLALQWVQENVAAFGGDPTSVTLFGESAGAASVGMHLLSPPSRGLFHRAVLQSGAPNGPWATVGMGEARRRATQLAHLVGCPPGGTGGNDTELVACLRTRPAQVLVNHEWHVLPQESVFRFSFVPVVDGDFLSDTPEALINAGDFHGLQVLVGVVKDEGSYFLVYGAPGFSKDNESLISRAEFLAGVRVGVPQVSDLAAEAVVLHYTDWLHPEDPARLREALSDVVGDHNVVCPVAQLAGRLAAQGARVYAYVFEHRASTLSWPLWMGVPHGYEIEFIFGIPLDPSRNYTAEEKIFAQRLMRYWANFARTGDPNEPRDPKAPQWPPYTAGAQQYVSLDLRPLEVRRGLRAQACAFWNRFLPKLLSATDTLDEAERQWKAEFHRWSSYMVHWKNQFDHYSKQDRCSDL

CC(C[N+](C)(C)C)OC(N)=O (centres unmarked) [bethanechol, 2-carbamoyloxpropyl-trimethyl-ammonium chloride]
undesirable side effects when provided systemically [1]: diarrhea, flushing, increased sweating, nausea, stomach pain, or gas, and, importantly, urinary urgency | receptor selectivity (muscarinic M2 receptors): directly and selectively on the muscarinic M2 receptors | stability and water solubility [2]: stable, water-soluble | bethanechol systemically adsorbed from the remaining 3.75 mg ([3]; remaining 3.75 mg in stomach and intestines at about 22 percent absorption rate): about 0.8 mg | fraction of bethanechol adsorbed from the spray ([3]; ten 0.1 ml sprays, 5 mg bethanechol per ml with absorption enhancer, total 5 mg): about 25% | amount of bethanechol adsorbed from the spray ([3]; ten 0.1 ml sprays, total 5 mg): about 1.25 mg | systemic level of bethanechol [4]: about 11 mg | inactivation by acetylcholinesterase (acetylcholinesterase): not inactivated by acetylcholinesterase | effect on esophageal motility [5]: improve esophageal motility | fraction absorbed in the stomach and intestines ([6]; 50 mg oral dosage, "is believed"): about 22% | absorption by the mucosal lining of the gastrointestinal tract ([6]; in vivo): poorly absorbed
